The values below come from paper doi:10.1101/2023.11.02.565309v1 (biorxiv, 2023).

For the assay, the target named is WT GluA2(Q)i (Rattus norvegicus, UniProt P19491). It is filed as cell-based. The conditions noted are these: positive allosteric modulator at 100 µM.
Sequence of WT GluA2(Q)i (P19491 22-883 isoform P19491-2): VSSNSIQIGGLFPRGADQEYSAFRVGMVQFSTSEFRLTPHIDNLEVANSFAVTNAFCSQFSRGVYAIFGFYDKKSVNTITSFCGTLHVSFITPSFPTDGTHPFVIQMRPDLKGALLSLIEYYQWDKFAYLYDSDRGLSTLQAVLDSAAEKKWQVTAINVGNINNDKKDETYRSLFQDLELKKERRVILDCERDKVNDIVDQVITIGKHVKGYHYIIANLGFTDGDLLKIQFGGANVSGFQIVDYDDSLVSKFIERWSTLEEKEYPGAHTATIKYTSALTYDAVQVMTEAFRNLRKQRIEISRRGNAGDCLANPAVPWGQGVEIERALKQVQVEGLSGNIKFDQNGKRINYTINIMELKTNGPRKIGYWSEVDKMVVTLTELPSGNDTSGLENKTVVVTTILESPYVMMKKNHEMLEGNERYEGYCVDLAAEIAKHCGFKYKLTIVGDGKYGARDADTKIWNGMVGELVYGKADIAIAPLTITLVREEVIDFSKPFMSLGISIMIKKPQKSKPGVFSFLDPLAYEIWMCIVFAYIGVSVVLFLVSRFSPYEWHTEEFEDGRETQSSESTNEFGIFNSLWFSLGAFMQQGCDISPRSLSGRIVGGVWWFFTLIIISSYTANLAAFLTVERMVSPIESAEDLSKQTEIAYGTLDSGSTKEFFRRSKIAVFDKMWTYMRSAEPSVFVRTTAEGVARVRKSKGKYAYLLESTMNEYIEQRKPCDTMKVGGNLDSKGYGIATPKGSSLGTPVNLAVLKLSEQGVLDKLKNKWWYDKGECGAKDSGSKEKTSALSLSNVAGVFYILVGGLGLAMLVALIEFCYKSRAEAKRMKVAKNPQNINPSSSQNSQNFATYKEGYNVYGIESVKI

Turning to `NS(=O)(=O)c1cc2c(cc1Cl)NC(C1CC3C=CC1C3)NS2(=O)=O` (stereo not shown) [cyclothiazide], the fold potentiation is reported as ~ 3 fold.
